Laboratory results as given in patent publication US5057493A, “Novel antibiotics R106” (priority 1988, dated 1991).
Starred links: 1 amine or outer side, 2 acyl side, 3 side chain; linkers in the order of their positions; H or OH if unused. Non-standard residues stand in square brackets, D forms with d. Residues, ends and D or L forms follow the SMILES beside them. ξ: configuration not given here. ξNMeVal(3-OH) = CNC(C(=O)O)C(C)(C)O; NMeF = CN[CH](Cc1ccccc1)C(=O)O; X1 = CCC(C)C(O[*:1])C(=O)[*:2]; NMeV = CN[CH](C(=O)O)C(C)C

Experiments:
Test in all cases: MIC by agar dilution method, casitone agar
Type in all cases: cell-based
[1] = test system: Candida krusei TIMM 0270; details: 27° C. for 4 days
Description: (§1) The minimum inhibitory concentration (MIC) of each antibiotic against various fungi was determined by the agar dilution method using casitone agar medium (2.0% glucose, 0.9% bacto-casitone, 1.0% yeast extract, 0.1% KH2 PO4, 0.1% Na2 HPO4, 1.0% sodium citrate, 2.0% agar: concentrations are all by w/v).
(§2) Each minimum growth inhibitory concentration was determined after culturing at 27° C. for 4 days.

[2] = test system: Candida guilliermondii TIMM 0257; details: 27° C. for 4 days
Description: as §1, §2

[3] = test system: Cryptococcus neoformans TIMM 0363; details: 27° C. for 4 days
Description: as §1, §2

[4] = test system: Candida glabrata TIMM 1064; details: 27° C. for 4 days
Description: as §1, §2

[5] = test system: Candida albicans TIMM 1623; details: 27° C. for 4 days
Description: as §1, §2

[6] = test system: Candida glabrata TIMM 1062; details: 27° C. for 4 days
Description: as §1, §2

[7] = test system: Candida parapsilosis TIMM 0287; details: 27° C. for 4 days
Description: as §1, §2

[8] = test system: Cryptococcus neoformans TIMM 0355; details: 27° C. for 4 days
Description: as §1, §2

[9] = test system: Cryptococcus neoformans TIMM 0354; details: 27° C. for 4 days
Description: as §1, §2

[10] = test system: Candida kefyr TIMM 0298; details: 27° C. for 4 days
Description: as §1, §2

[11] = test system: Candida albicans TIMM 1529; details: 27° C. for 4 days
Description: as §1, §2

[12] = test system: Cryptococcus terreus TIMM 0424; details: 27° C. for 4 days
Description: as §1, §2

[13] = test system: Candida tropicalis TIMM 0315; details: 27° C. for 4 days
Description: as §1, §2

[14] = test system: Candida albicans TIMM 0144; details: 27° C. for 4 days
Description: as §1, §2

[15] = test system: Rhodotorula rubra TIMM 0923; details: 27° C. for 4 days
Description: as §1, §2

[16] = test system: Candida tropicalis TIMM 0312; details: 27° C. for 4 days
Description: as §1, §2

[17] = test system: Aspergillus citrinum TIMM 1330; details: 27° C. for 7 days
[18] = test system: Aspergillus clavatus TIMM 0056; details: 27° C. for 7 days
[19] = test system: Aspergillus crustorum TIMM 1332; details: 27° C. for 7 days
[20] = test system: Blastomyces dermatitidis TIMM 1690; details: 27° C. for 7 days

## CCC(C)C1NC(=O)C2CCCN2C(=O)C(Cc2ccccc2)N(C)C(=O)C(Cc2ccccc2)NC(=O)C(C(C)C)N(C)C(=O)C(C(C)CC)OC(=O)C(C(C)(C)O)N(C)C(=O)C(CC(C)C)NC(=O)C(C(C)C)N(C)C1=O (centres unmarked) [Compound 1] (cyclo([ξNMeVal(3-OH)][X1][NMeV]F[NMeF]PI[NMeV]L); configuration not given here)
[1]
  Minimum Inhibitory Concentration: ≤ 0.04 µg/mL
[2]
  Minimum Inhibitory Concentration: 0.08 µg/mL
[3]
  Minimum Inhibitory Concentration: 1.25 µg/mL
[4]
  Minimum Inhibitory Concentration: 0.08 µg/mL
[5]
  Minimum Inhibitory Concentration: ≤ 0.04 µg/mL
[6]
  Minimum Inhibitory Concentration: ≤ 0.04 µg/mL
[7]
  Minimum Inhibitory Concentration: 0.16 µg/mL
[8]
  Minimum Inhibitory Concentration: 0.31 µg/mL
[9]
  Minimum Inhibitory Concentration: 0.63 µg/mL
[10]
  Minimum Inhibitory Concentration: 0.16 µg/mL
[11]
  Minimum Inhibitory Concentration: ≤ 0.04 µg/mL
[12]
  Minimum Inhibitory Concentration: 0.31 µg/mL
[13]
  Minimum Inhibitory Concentration: 0.08 µg/mL
[14]
  Minimum Inhibitory Concentration: ≤ 0.04 µg/mL
[15]
  Minimum Inhibitory Concentration: 0.63 µg/mL
[16]
  Minimum Inhibitory Concentration: 0.08 µg/mL
[17]
  Minimum Inhibitory Concentration: > 80 µg/mL
[18]
  Minimum Inhibitory Concentration: 0.16 µg/mL
[19]
  Minimum Inhibitory Concentration: > 80 µg/mL
[20]
  Minimum Inhibitory Concentration: ≤ 0.04 µg/mL
